Measurements: patent publication US20050209278A1, “Piperidinyl- and piperazinyl-sulfonylmethyl hydroxamic acids and their use as protease inhibitors” (priority 2002, published 2005)
Structures can show the parent of a compound that is named as a salt. Where two headings read alike, the source gives them in different places. Values belong to the compound of their own block, whether it stands above or below them.

How the values were obtained:
Format in all cases: biochemical
MMP-14 = biological target: T1, MMP-14 (Homo sapiens, UniProt P50281); assay: MMP-14 inhibition (in vitro Ki)
T1 construct: The catalytic domain enzyme was expressed in E. coli inclusion bodies, solubilized in urea; made in house

MMP-13 = biological target: T2, MMP-13 (Homo sapiens, UniProt P45452); assay: MMP-13 inhibition (in vitro Ki)
T2 construct: made in house; host or cells: baculovirus / insect cells

MMP-2 = biological target: T3, MMP-2 (Homo sapiens, UniProt P08253); assay: MMP-2 inhibition (in vitro Ki)
T3 construct: made in house; host or cells: MMP-2-transfected p2AHT2 cells
T3 sequence (P08253 110-660): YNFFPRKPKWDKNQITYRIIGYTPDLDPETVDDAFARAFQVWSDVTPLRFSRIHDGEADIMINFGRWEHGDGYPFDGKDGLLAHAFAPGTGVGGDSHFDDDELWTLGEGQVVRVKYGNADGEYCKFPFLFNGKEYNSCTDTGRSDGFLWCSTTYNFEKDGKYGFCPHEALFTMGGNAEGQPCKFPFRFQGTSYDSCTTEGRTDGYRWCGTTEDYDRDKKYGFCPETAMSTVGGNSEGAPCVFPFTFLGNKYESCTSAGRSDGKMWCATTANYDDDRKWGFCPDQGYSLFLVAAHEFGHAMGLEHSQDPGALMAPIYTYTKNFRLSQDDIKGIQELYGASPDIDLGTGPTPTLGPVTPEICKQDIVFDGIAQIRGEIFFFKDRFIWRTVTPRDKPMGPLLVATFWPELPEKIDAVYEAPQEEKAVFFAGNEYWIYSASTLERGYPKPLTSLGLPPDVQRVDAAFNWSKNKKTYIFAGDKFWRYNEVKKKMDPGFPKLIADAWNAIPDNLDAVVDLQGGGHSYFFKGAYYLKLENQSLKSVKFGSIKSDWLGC

MMP-9 = biological target: T4, MMP-9 (Homo sapiens, UniProt P14780); assay: MMP-9 inhibition (in vitro Ki)
T4 construct: made in house; host or cells: MMP-9-transfected HT1080 cells (spent media)
T4 sequence (P14780 107-707 limits assumed): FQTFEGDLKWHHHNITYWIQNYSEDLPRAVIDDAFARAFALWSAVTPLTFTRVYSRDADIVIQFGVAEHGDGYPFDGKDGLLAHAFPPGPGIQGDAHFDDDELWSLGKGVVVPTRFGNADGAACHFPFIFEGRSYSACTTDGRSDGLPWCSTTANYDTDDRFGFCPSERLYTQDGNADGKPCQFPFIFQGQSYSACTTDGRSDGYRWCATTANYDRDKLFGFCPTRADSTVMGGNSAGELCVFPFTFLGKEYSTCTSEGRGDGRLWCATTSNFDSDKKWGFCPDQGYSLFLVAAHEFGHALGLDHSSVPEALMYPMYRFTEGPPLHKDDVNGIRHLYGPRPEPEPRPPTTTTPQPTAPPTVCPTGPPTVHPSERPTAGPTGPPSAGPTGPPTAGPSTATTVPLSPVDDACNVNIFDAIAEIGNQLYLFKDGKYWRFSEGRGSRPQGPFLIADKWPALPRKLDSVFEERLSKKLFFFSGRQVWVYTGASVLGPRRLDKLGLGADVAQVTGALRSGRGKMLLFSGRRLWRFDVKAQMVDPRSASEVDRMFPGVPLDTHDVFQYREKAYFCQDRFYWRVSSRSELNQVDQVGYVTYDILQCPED

MMP-1 = biological target: T5, MMP-1 (Homo sapiens, UniProt P03956); assay: MMP-1 inhibition (in vitro Ki)
T5 construct: made in house; host or cells: MMP-1-transfected HT-1080 cells (spent media)
T5 sequence (P03956 100-469): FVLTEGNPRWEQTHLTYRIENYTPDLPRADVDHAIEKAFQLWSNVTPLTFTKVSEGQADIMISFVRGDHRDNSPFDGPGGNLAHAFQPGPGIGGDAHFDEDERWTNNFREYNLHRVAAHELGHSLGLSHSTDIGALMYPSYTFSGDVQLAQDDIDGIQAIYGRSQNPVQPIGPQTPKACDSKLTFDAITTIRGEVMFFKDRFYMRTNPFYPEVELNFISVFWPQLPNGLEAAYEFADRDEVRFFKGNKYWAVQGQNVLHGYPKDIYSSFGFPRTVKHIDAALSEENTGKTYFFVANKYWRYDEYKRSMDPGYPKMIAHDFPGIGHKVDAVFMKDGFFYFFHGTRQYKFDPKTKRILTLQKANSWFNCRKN

[1] = Table 9, read-out: MMP-14 Ki (IC-50)
[2] = Table 9, read-out: MMP-13 Ki (IC-50)
[3] = Table 9, read-out: MMP-2 Ki (IC-50)
[4] = Table 9, read-out: MMP-9 Ki (IC-50)
[5] = Table 9, read-out: MMP-1 Ki (IC-50)

Compound: COCCC(CCOC)(C(=O)NO)S(=O)(=O)N1CCC(c2ccc(CCC(F)(F)C(F)(F)F)cn2)CC1 [Example A107]
Ki (MMP-14; [1]): 3.37 µM
Ki (MMP-13; [2]): 0.85 nM
Ki (MMP-2; [3]): 2.89 nM
Ki (MMP-9; [4]): 0.86 nM
Ki (MMP-1; [5]): 4.44 µM

Compound: O=C(NO)C1(S(=O)(=O)N2CCC(c3ccc(CCc4cccs4)cn3)CC2)CCOCC1 [Example A102]
Ki (MMP-14; [1]): 2.16 µM
Ki (MMP-13; [2]): 0.215 nM
Ki (MMP-2; [3]): 1.3 nM
Ki (MMP-9; [4]): 3.84 nM
Ki (MMP-1; [5]): 6.28 µM

Compound: CCCCOCCCC1CCN(S(=O)(=O)C2(C(=O)NO)CCOCC2)CC1 [Example A36I]
Ki (MMP-14; Table 8, read-out: MMP-14 Ki): 6.37 µM
Ki (MMP-13; Table 8, read-out: MMP-13 Ki): 7.7 nM
Ki (MMP-2; Table 8, read-out: MMP-2 Ki): 9.08 nM
Ki (MMP-9; Table 8, read-out: MMP-9 Ki): 2.57 nM
Ki (MMP-1; Table 8, read-out: MMP-1 Ki): > 10 µM

Compound: COC(=O)CCCCC1CCN(S(=O)(=O)C2(C(=O)NO)CCOCC2)CC1 [Example A103]
Ki (MMP-14; [1]): 2.88 µM
Ki (MMP-13; [2]): 1.08 nM
Ki (MMP-2; [3]): 3.84 nM
Ki (MMP-9; [4]): 3.39 nM
Ki (MMP-1; [5]): 0.363 µM

Compound: O=C(NO)C1(S(=O)(=O)N2CCN(c3ccc(CCC(F)(F)F)cn3)CC2)CCOCC1 [Example A184]
Ki (MMP-14; [1]): 0.985 µM
Ki (MMP-13; [2]): 0.41 nM
Ki (MMP-2; [3]): 0.38 nM
Ki (MMP-9; [4]): 0.52 nM
Ki (MMP-1; [5]): 7.05 µM

Compound: COC(=O)CCCC1CCN(S(=O)(=O)C2(C(=O)NO)CCOCC2)CC1 [Example A148]
Ki (MMP-14; [1]): 1.73 µM
Ki (MMP-13; [2]): 5.21 nM
Ki (MMP-2; [3]): 6.67 nM
Ki (MMP-9; [4]): 3.79 nM
Ki (MMP-1; [5]): 2.71 µM

Compound: CCCC(F)(F)c1ccc(C2CCN(S(=O)(=O)C3(C(=O)NO)CCOCC3)CC2)nc1 [Example A156]
Ki (MMP-14; [1]): > 10 µM
Ki (MMP-13; [2]): 1.57 nM
Ki (MMP-2; [3]): 3.14 nM
Ki (MMP-9; [4]): 9.5 nM
Ki (MMP-1; [5]): 4.55 µM

Compound: COCCC(CCOC)(C(=O)NO)S(=O)(=O)N1CCC(c2ccc(CCC(F)(F)C(F)(F)F)cn2)CC1 [Example A61, N-hydroxy-4-methoxy-2-(2-methoxyethyl)-2-({4-[5-(3,3,4,4,4-pentafluorobutyl)pyridin-2-yl]piperidin-1-yl}sulfonyl)butanamide Hydrochloride]
Ki (MMP-14; Table 8, read-out: MMP-14 Ki): 4.17 µM
Ki (MMP-13; Table 8, read-out: MMP-13 Ki): 0.16 nM
Ki (MMP-2; Table 8, read-out: MMP-2 Ki): 0.98 nM
Ki (MMP-9; Table 8, read-out: MMP-9 Ki): 0.38 nM
Ki (MMP-1; Table 8, read-out: MMP-1 Ki): 3.53 µM

Compound: O=C(NO)C1(S(=O)(=O)N2CCC(c3ccc(-n4cccn4)cn3)CC2)CCOCC1 [Example A194]
Ki (MMP-14; [1]): 1.7 µM
Ki (MMP-13; [2]): 8.86 nM
Ki (MMP-2; [3]): 8.71 nM
Ki (MMP-9; [4]): 12.6 nM
Ki (MMP-1; [5]): > 10 µM

Compound: O=C(NO)C1(S(=O)(=O)N2CCC(OCCCCCCC(F)(F)F)CC2)CCOCC1 [Example A48, 4-[4-(7,7,7-trifluoro-heptyloxy)-piperidine-1-sulfonyl]-tetrahydro-pyran-4-carboxylic Acid Hydroxyamide]
Ki (MMP-14; Table 8, read-out: MMP-14 Ki): 2.71 µM
Ki (MMP-13; Table 8, read-out: MMP-13 Ki): 1.13 nM
Ki (MMP-2; Table 8, read-out: MMP-2 Ki): 3.49 nM
Ki (MMP-9; Table 8, read-out: MMP-9 Ki): 8.23 nM
Ki (MMP-1; Table 8, read-out: MMP-1 Ki): > 10 µM

Compound: CC(C)COc1cnc(C2CCN(S(=O)(=O)C3(C(=O)NO)CCOCC3)CC2)cn1 [Example A132]
Ki (MMP-14; [1]): 5.29 µM
Ki (MMP-13; [2]): 1.48 nM
Ki (MMP-2; [3]): 2.29 nM
Ki (MMP-9; [4]): 0.45 nM
Ki (MMP-1; [5]): 7.17 µM

Compound: Cn1cc(-c2ccc(C3CCN(S(=O)(=O)C4(C(=O)NO)CCOCC4)CC3)nc2)cn1 [Example A201]
Ki (MMP-14; [1]): 3.38 µM
Ki (MMP-13; [2]): 2.14 nM
Ki (MMP-2; [3]): 4.25 nM
Ki (MMP-9; [4]): 16.8 nM
Ki (MMP-1; [5]): 5.85 µM

Continued, values first:

Ki (MMP-14; [1]): 3.35 µM
Ki (MMP-13; [2]): 0.22 nM
Ki (MMP-2; [3]): 0.39 nM
Ki (MMP-9; [4]): 1.09 nM
Ki (MMP-1; [5]): > 10 µM
Compound: O=C(NO)C1(S(=O)(=O)N2CCN(c3ccc(CCC(F)(F)C(F)(F)F)cn3)CC2)CCOCC1 [Example A190]

Ki (MMP-14; [1]): 0.184 µM
Ki (MMP-13; [2]): 0.15 nM
Ki (MMP-2; [3]): 0.08 nM
Ki (MMP-9; [4]): 0.81 nM
Ki (MMP-1; [5]): 1.71 µM
Compound: CCc1nc(-c2ccc(N3CCN(S(=O)(=O)C4(C(=O)NO)CCOCC4)CC3)cc2)no1 [Example A176]

Ki (MMP-14; Table 8, read-out: MMP-14 Ki): 0.816 µM
Ki (MMP-13; Table 8, read-out: MMP-13 Ki): 9.36 nM
Ki (MMP-2; Table 8, read-out: MMP-2 Ki): 6 nM
Ki (MMP-9; Table 8, read-out: MMP-9 Ki): 2.65 nM
Ki (MMP-1; Table 8, read-out: MMP-1 Ki): > 10 µM
Compound: CCCCCOC1CCN(S(=O)(=O)C2(C(=O)NO)CCOCC2)CC1 [Example A36A]

Ki (MMP-14; Table 8, read-out: MMP-14 Ki): 4.06 µM
Ki (MMP-13; Table 8, read-out: MMP-13 Ki): 19.9 nM
Ki (MMP-2; Table 8, read-out: MMP-2 Ki): 11.9 nM
Ki (MMP-9; Table 8, read-out: MMP-9 Ki): 39.1 nM
Ki (MMP-1; Table 8, read-out: MMP-1 Ki): > 10 µM
Compound: CC(C)CCCOC1CCN(S(=O)(=O)C2(C(=O)NO)CCOCC2)CC1 [Example A36D]

Ki (MMP-14; [1]): > 10 µM
Ki (MMP-13; [2]): 2910 nM
Ki (MMP-2; [3]): > 10000 nM
Ki (MMP-9; [4]): > 10000 nM
Ki (MMP-1; [5]): > 10 µM
Compound: CN(C(=O)CCCN1CCN(S(=O)(=O)C2(C(=O)NO)CCOCC2)CC1)C1CCCCC1 [Example A130]

Ki (MMP-14; [1]): > 10 µM
Ki (MMP-13; [2]): 5.94 nM
Ki (MMP-2; [3]): 2450 nM
Ki (MMP-9; [4]): > 10000 nM
Ki (MMP-1; [5]): > 10 µM
Compound: CN(C(=O)/C=C/C=C/C1CCN(S(=O)(=O)C2(C(=O)NO)CCOCC2)CC1)C1CCCCC1 [Example A79]

Ki (MMP-14; [1]): > 10 µM
Ki (MMP-13; [2]): 66.4 nM
Ki (MMP-2; [3]): 358 nM
Ki (MMP-9; [4]): 184 nM
Ki (MMP-1; [5]): > 10 µM
Compound: Cc1ccc(N(C)C(=O)CCCC2CCN(S(=O)(=O)C3(C(=O)NO)CCOCC3)CC2)cc1 [Example A142]

Ki (MMP-14; [1]): > 10 µM
Ki (MMP-13; [2]): 0.81 nM
Ki (MMP-2; [3]): 98.5 nM
Ki (MMP-9; [4]): 1350 nM
Ki (MMP-1; [5]): > 10 µM
Compound: O=C(NCCCCC1CCN(S(=O)(=O)C2(C(=O)NO)CCOCC2)CC1)C1(c2ccccc2)CC1 [Example A115]

Ki (MMP-14; Table 8, read-out: MMP-14 Ki): 1.9 µM
Ki (MMP-13; Table 8, read-out: MMP-13 Ki): 1.11 nM
Ki (MMP-2; Table 8, read-out: MMP-2 Ki): 2.47 nM
Ki (MMP-9; Table 8, read-out: MMP-9 Ki): 2.26 nM
Ki (MMP-1; Table 8, read-out: MMP-1 Ki): > 10 µM
Compound: CC(C)CCCCCOC1CCN(S(=O)(=O)C2(C(=O)NO)CCOCC2)CC1 [Example A36F]

Ki (MMP-14; [1]): 1.3 µM
Ki (MMP-13; [2]): 0.06 nM
Ki (MMP-2; [3]): 0.27 nM
Ki (MMP-9; [4]): 0.14 nM
Ki (MMP-1; [5]): 2.75 µM
Compound: O=C(NO)C1(S(=O)(=O)N2CCC(c3ccc(CCC(F)(F)C(F)(F)F)cn3)CC2)CCC1 [Example A126]

Ki (MMP-14; [1]): > 10 µM
Ki (MMP-13; [2]): 0.82 nM
Ki (MMP-2; [3]): 92.3 nM
Ki (MMP-9; [4]): 336 nM
Ki (MMP-1; [5]): 1.05 µM
Compound: CN(C(=O)CCCCC1CCN(S(=O)(=O)C2(C(=O)NO)CCOCC2)CC1)c1ccc(F)cc1 [Example A93]

Ki (MMP-14; [1]): 5.75 µM
Ki (MMP-13; [2]): 0.9 nM
Ki (MMP-2; [3]): 0.71 nM
Ki (MMP-9; [4]): 0.84 nM
Ki (MMP-1; [5]): 4.46 µM
Compound: O=C(NO)C1(S(=O)(=O)N2CCC(c3cnc(OCC(F)(F)C(F)F)cn3)CC2)CCOCC1 [Example A206]

Ki (MMP-14; [1]): > 10 µM
Ki (MMP-13; [2]): 2 nM
Ki (MMP-2; [3]): 3.8 nM
Ki (MMP-9; [4]): 1.4 nM
Ki (MMP-1; [5]): > 10 µM
Compound: O=C(NO)C1(S(=O)(=O)N2CCC(c3cnc(CCC(F)(F)F)cn3)CC2)CCOCC1 [Example A72]
